The values below come from ChEMBL document CHEMBL1201862, “PubChem BioAssay data set” (2004).

The structures appear in SMILES notation.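 Cultured in 96-well plates, cells were exposed to test compound for 48 hours across five concentrations. Abbreviation: GI50, concentration required for 50% inhibition of growth.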 Activity calls are given as the source filed them. No stated cut-off is given here; in the data, active = GI50 up to about 1.1 µM and inactive = higher.

Some test systems named below: 786-0; HCC 2998; SK-OV-3; COLO 205; A498; NCI-H460; HT-29; SR; IGROV-1; NCI-H23; HCT-15; UO-31; U-251; HOP-62; RPMI-8226; SF-295; HL-60.
Common to all, as to assay: NCI-60 cell line screen, 48 h

Regarding `COc1cc(NCC(C#N)C#N)ccc1/N=N/c1ccc(Cl)cc1`, the GI50 in the assay on 786-0 is 20 µM (inactive); with HCC 2998, 19.7 µM (inactive); in the assay with SK-OV-3, 29.9 µM (inactive); in the assay on COLO 205, 17.7 µM (inactive); with A498, 44.7 µM (inactive); in the assay on NCI-H460 it was 23.2 µM (inactive). Also, the GI50 in the assay on HT-29 was 16.4 µM (inactive); in the assay with SR it was 12.8 µM (inactive); in the assay on IGROV-1, 30.5 µM (inactive); in the assay with NCI-H23, 23.8 µM (inactive); in the assay on HCT-15, 20 µM; in the assay on UO-31, 16.9 µM (inactive). Also, the GI50 in the assay on U-251 was 18.5 µM (inactive); in the assay with HOP-62, 19.9 µM (inactive); in the assay with RPMI-8226 it was 28.6 µM (inactive); in the assay on SF-295 it was 22.3 µM (inactive).

For `COC(=O)C1=CCON(c2ccccc2)C1c1ccccc1` (stereo not given), the GI50 in the assay on 786-0 is > 100 µM (inactive); with HCC 2998, 65.5 µM (inactive); in the assay on SK-OV-3 it was 53 µM (inactive); in the assay on COLO 205, 65.8 µM (inactive); in the assay on HL-60, 24.9 µM (inactive); with NCI-H460 it was 48.2 µM (inactive). In addition, the GI50 in the assay on HT-29 is 40.4 µM (inactive); with SR it was 31.3 µM (inactive); in the assay with IGROV-1 it was 97.3 µM (inactive); in the assay on NCI-H23 it was 33.2 µM (inactive); in the assay with HCT-15 it was 38 µM; in the assay with UO-31, 36.1 µM (inactive). Also, the GI50 with U-251 is 40.3 µM (inactive); in the assay on HOP-62 it was > 100 µM (inactive); in the assay on RPMI-8226, 29.2 µM (inactive).

Turning to `COc1cc2nc(-c3cccc(N(C)C)c3)cc(O)c2cc1OC`, the GI50 in the assay with 786-0 was 3.57 µM (inactive); with HCC 2998 it was 2.39 µM (inactive); in the assay with SK-OV-3, 3.7 µM (inactive); in the assay with COLO 205 it was 3.85 µM (inactive); in the assay on A498 it was 6.03 µM (inactive); in the assay on HL-60 it was 2.7 µM (inactive). Further, the GI50 is 3.94 µM (inactive) in the assay with NCI-H460; 3.2 µM (inactive) in the assay with HT-29; 5.14 µM (inactive) with SR; 7.11 µM (inactive) in the assay with IGROV-1; 3.54 µM (inactive) in the assay with NCI-H23; 2.99 µM with HCT-15. Also, the GI50 was 5.65 µM (inactive) in the assay with UO-31, 3.02 µM (inactive) with HOP-62, 3.65 µM (inactive) in the assay with RPMI-8226 and 2.58 µM (inactive) in the assay on SF-295.

Turning to `C/C=C/C=C/C=C/C=C/C(=O)O`, the GI50 in the assay on 786-0, in the assay with HCC 2998, with SK-OV-3, with COLO 205, in the assay with A498 and in the assay on HL-60 was > 100 µM (inactive) each time. Further, the GI50 in the assay on NCI-H460 is > 100 µM (inactive); in the assay with HT-29, > 100 µM (inactive); with SR, > 100 µM (inactive); in the assay with IGROV-1 it was > 100 µM (inactive); in the assay with NCI-H23, > 100 µM (inactive); in the assay with HCT-15, greater than 100 µM. The GI50 in the assay on UO-31, in the assay with U-251, in the assay with HOP-62, in the assay with RPMI-8226 and with SF-295 was > 100 µM (inactive) in each case.

`O=C(/C=C/c1c(O)ccc2ccccc12)c1cccc(O)c1`: the GI50 was > 100 µM (inactive) in the assay on 786-0; > 100 µM (inactive) in the assay on HCC 2998; > 100 µM (inactive) in the assay with SK-OV-3; > 100 µM (inactive) with COLO 205; > 100 µM (inactive) with A498; 20.7 µM (inactive) in the assay with HL-60. The GI50 in the assay on NCI-H460 is > 100 µM (inactive); with HT-29 it was > 100 µM (inactive); in the assay with SR it was 42.7 µM (inactive); in the assay with IGROV-1, > 100 µM (inactive); with NCI-H23, > 79.8 µM (inactive); with HCT-15, greater than 100 µM. Moreover, the GI50 is > 100 µM (inactive) with UO-31; > 91.6 µM (inactive) with U-251; > 100 µM (inactive) with HOP-62; 64.3 µM (inactive) in the assay on RPMI-8226; > 100 µM (inactive) with SF-295.

On to `CC(C)C1CNC2N1C(=O)C2(C)OCc1ccccc1` (stereo not given), for which the GI50 with 786-0, in the assay on HCC 2998, with COLO 205, with A498, in the assay on HL-60 and in the assay on NCI-H460 was > 100 µM (inactive) in each case. For the same compound, the GI50 is > 100 µM (inactive) in the assay on HT-29; 78.5 µM (inactive) in the assay with SR; > 100 µM (inactive) in the assay with IGROV-1; > 100 µM (inactive) in the assay with NCI-H23; greater than 100 µM in the assay with HCT-15; 81.5 µM (inactive) in the assay with UO-31. Also, the GI50 is > 100 µM (inactive) in the assay on U-251, > 100 µM (inactive) with HOP-62, 91.2 µM (inactive) in the assay on RPMI-8226 and > 100 µM (inactive) in the assay on SF-295.

Turning to `CC1CC(=O)C(CC(=O)O)[C@H]1C(C(=O)C(=O)Nc1cc(Cl)ccc1Cl)[N+](=O)[O-]` (stereo not given in full), the GI50 in the assay on 786-0, in the assay on HCC 2998, in the assay with SK-OV-3, with COLO 205, in the assay with A498 and in the assay with HL-60 was > 100 µM (inactive) in each case. The GI50 was > 100 µM (inactive) with NCI-H460; > 100 µM (inactive) in the assay with HT-29; > 100 µM (inactive) in the assay with SR; > 100 µM (inactive) with IGROV-1; greater than 100 µM in the assay with HCT-15; > 100 µM (inactive) with UO-31. Also, the GI50 in the assay on U-251, in the assay on HOP-62, with RPMI-8226 and with SF-295 was > 100 µM (inactive) each time.

Turning to `O=C1CCC2(c3ccccc3)OCC([C@@H](O)c3ccccc3)N12` (stereo not given in full), the GI50 with 786-0, in the assay with COLO 205, in the assay with A498, with NCI-H460, with HT-29 and in the assay on SR was > 100 µM (inactive) throughout. Besides, the GI50 in the assay on IGROV-1 was > 100 µM (inactive); with NCI-H23 it was > 100 µM (inactive); in the assay on HCT-15, greater than 100 µM; in the assay on U-251, > 100 µM (inactive); in the assay on HOP-62, > 100 µM (inactive); in the assay on RPMI-8226, > 100 µM (inactive). The GI50 in the assay with SF-295 is > 100 µM (inactive).

With `O=C1C2=C(c3ccccc31)C(c1ccccc1)NC(S)=N2` (stereo not given), the GI50 was 27.4 µM (inactive) with 786-0; > 100 µM (inactive) in the assay with HCC 2998; > 100 µM (inactive) in the assay with SK-OV-3; > 100 µM (inactive) in the assay on COLO 205; > 100 µM (inactive) with A498; 17.9 µM (inactive) in the assay with HL-60. For the same compound, the GI50 in the assay with NCI-H460 is 91.6 µM (inactive); with HT-29, 57.5 µM (inactive); in the assay with IGROV-1, 75.3 µM (inactive); with NCI-H23 it was > 100 µM (inactive); in the assay with HCT-15, 37.1 µM; in the assay on UO-31 it was > 100 µM (inactive). For the same compound, the GI50 is 50.1 µM (inactive) with U-251, > 100 µM (inactive) with HOP-62, 40.6 µM (inactive) in the assay on RPMI-8226 and 31.9 µM (inactive) in the assay on SF-295.

Turning to `C[N+](C)(C)CC1CCCC/C1=N\O` (stereo not given), the GI50 in the assay with 786-0, in the assay on HCC 2998, in the assay on SK-OV-3, in the assay with COLO 205, in the assay with A498 and in the assay on HL-60 was > 100 µM (inactive) each time. Moreover, the GI50 was > 100 µM (inactive) in the assay on NCI-H460; > 100 µM (inactive) in the assay with HT-29; > 100 µM (inactive) in the assay with IGROV-1; > 100 µM (inactive) in the assay on NCI-H23; greater than 100 µM in the assay on HCT-15; > 100 µM (inactive) with UO-31. The GI50 in the assay with U-251, in the assay on HOP-62, in the assay on RPMI-8226 and in the assay with SF-295 was > 100 µM (inactive) throughout.

`O=c1cc(-c2ccccc2)[nH]c2cc(Cl)cc(Cl)c12`: the GI50 was 22 µM (inactive) in the assay with 786-0; 23.6 µM (inactive) with SK-OV-3; > 100 µM (inactive) with COLO 205; > 100 µM (inactive) with HL-60; 59 µM (inactive) with NCI-H460; > 100 µM (inactive) in the assay with HT-29. In addition, the GI50 in the assay with SR was 3.16 µM (inactive); with IGROV-1, 52.7 µM (inactive); in the assay on NCI-H23 it was 57.7 µM (inactive); in the assay with HCT-15, 6.79 µM; in the assay with UO-31 it was 84.7 µM (inactive); in the assay on U-251, 31.1 µM (inactive). Moreover, the results for the GI50 with HOP-62, in the assay on RPMI-8226 and in the assay on SF-295 were 25.8 µM (inactive), > 100 µM (inactive) and 27 µM (inactive), respectively.

In the case of `Clc1ccc2[nH]c(CCSCCc3nc4ccc(Cl)cc4[nH]3)nc2c1`, the GI50 in the assay on 786-0 is 13.5 µM (inactive); in the assay on HCC 2998, 15.1 µM (inactive); in the assay with SK-OV-3, 18.1 µM (inactive); in the assay on COLO 205, 15.4 µM (inactive); with HL-60, 0.491 µM (active); in the assay on NCI-H460 it was 15.1 µM (inactive). The GI50 in the assay with HT-29 is 11.6 µM (inactive); in the assay on SR it was 0.181 µM (active); in the assay with IGROV-1, 10.2 µM (inactive); with NCI-H23, 13.6 µM (inactive); in the assay on HCT-15, 13.2 µM; in the assay with UO-31, 11.4 µM (inactive). The GI50 in the assay on U-251 was 13.4 µM (inactive); with HOP-62, 15.2 µM (inactive); in the assay with RPMI-8226, 2.34 µM (inactive); in the assay with SF-295 it was 7.62 µM (inactive).

With `COc1cc(O)c2c(c1O)C(=O)c1cc(C)ncc1C2=O`, the GI50 in the assay on 786-0 was 23 µM (inactive); in the assay on HCC 2998, 22.5 µM (inactive); with SK-OV-3, 9.89 µM (inactive); in the assay with COLO 205, 20.3 µM (inactive); in the assay with A498, > 50 µM (inactive); in the assay with HL-60, 17.7 µM (inactive). Further, the GI50 in the assay with NCI-H460 is 13.8 µM (inactive); in the assay on HT-29, 15.3 µM (inactive); with IGROV-1 it was 23.1 µM (inactive); with NCI-H23, 12.4 µM (inactive); in the assay on HCT-15 it was 16.6 µM; with UO-31, 14.3 µM (inactive). The GI50 is 12.9 µM (inactive) in the assay with U-251, 28.8 µM (inactive) with HOP-62, 22.9 µM (inactive) with RPMI-8226 and 19 µM (inactive) in the assay with SF-295.
